{"source": "paper PMC7913925", "about": "“Design and Evaluation of a Polypeptide That Mimics the Integrin Binding Site for EDA Fibronectin to Block Profibrotic Cell Activity” (International Journal of Molecular Sciences, 2021)", "key": {"[1]": {"test_system": "Ltbp1 mRNA in NIH/3T3 fibroblasts", "test": "qRT-PCR Ltbp1 mRNA", "format": "cell-based, mouse", "settings": "48 h, TGF-β1 10 ng/mL", "procedure": "(§1) Reverse transcription (RT) and real-time quantitative PCR (qRT-PCR) were used to assess ACTA2/Acta2, Col1a1, Col3a1, Fn1, Eda-Fn1, Mmp9, Tgfb1, Ltbp1, Hic5, and Mrtfa mRNA expressions. Custom PCR primers were designed in-house (Table 2) and then synthesized by BGI (Beijing, China). Cells were grown in 6-well culture plates and washed with phosphate buffered saline (PBS) before lysis with TRIzon Reagent (CWBio, Beijing, China) and total RNA purification according to the manufacturer’s protocol. Reverse transcription was carried using the TransScript First-Strand cDNA Synthesis SuperMix kit according to the manufacturer’s protocol (TransGen, Beijing, China), using the random primer method for the initiation of cDNA synthesis. Nuclease-free H2O replaced the RNA sample to serve as a negative control for the reverse transcription reaction. For qRT-PCR, 10 µL 2× TransStart Top Green qPCR SuperMix was added to each well of a 96-well PCR plate containing 0.4 µL forward primer, 0.4 µL reverse primer, […], and nuclease-free water to a total volume of 20 µL. The qRT-PCR reaction was completed using a CFX96 Real-Time PCR Detection System (Bio-Rad Laboratories, Hercules, CA, USA). Amplification used the following parameters: 94 °C for 30 s, followed by 40 cycles of 94 °C for 5 s, 55 °C for 15 s, 72 °C for 10 s, and then a dissociation stage (melt-curve). […]"}, "[2]": {"test_system": "mouse NIH/3T3 dermal fibroblast cells, α-SMA mRNA", "test": "α-SMA mRNA expression (qRT-PCR) in TGF-β1-treated NIH/3T3", "format": "cell-based", "procedure": "HFL1 cells were cultured in Kaighn’s modified Ham’s F-12 (F-12K) medium (Sigma-Aldrich) containing NaHCO3 and HEPES buffered to pH 7. Cells were grown to confluence in T75 culture flasks in the presence of 10% fetal bovine serum (FBS; Gibco, Thermo Fisher Scientific, Waltham, MA, USA). HFL1 cells were subcultured using 0.05% trypsin at a ratio of 1:3. NIH/3T3 cells were cultured in Dulbecco’s Modified Eagle Medium (DMEM; HyClone, Thermo Fisher Scientific) containing 100 U/mL penicillin and 100 μg/mL streptomycin. Cells were grown to confluence in T75 culture flasks in the presence of 10% FBS. NIH/3T3 cells were subcultured using 0.05% trypsin/EDTA at a ratio of 1:3. All cells were maintained at 37 °C and 5% CO2, and growth medium was replenished every 3 days until experimentation. Cells were growth-arrested in serum-free medium for 48 h before experiments, and all experiments were performed under serum-free conditions using cells between passages 3 and 8.\nas §1, with “µL.” for “µL. The qRT-PCR reaction was completed using a CFX96 Real-Time PCR Detection System (Bio-Rad Laboratories, Hercules, CA, USA). Amplification used the following parameters: 94 °C for 30 s, followed by 40 cycles of 94 °C for 5 s, 55 °C for 15 s, 72 °C for 10 s, and then a dissociation stage (melt-curve).”"}, "[3]": {"test_system": "Col3a1 mRNA", "test": "qRT-PCR Col3a1 mRNA", "format": "cell-based, mouse", "procedure": "as §1"}, "[4]": {"test_system": "vascular cell adhesion protein-1 (VCAM1)", "test": "Western blot total protein VCAM1", "format": "cell-based", "settings": "48 h TGF-β1, AF38Pep or TGF-β1+AF38Pep"}, "[5]": {"test_system": "NIH/3T3 cells, total collagen", "test": "Hydroxyproline assay, total collagen synthesis", "format": "cell-based, mouse", "settings": "48 h, TGF-β1 + AF38Pep; % of cells that only received TGF-β1", "procedure": "Approximately 4 × 10^6 of TGF-β1- and/or AF38Pep-treated NIH/3T3 fibroblast cells were harvested and homogenized in 1:1 conditioned medium to HCl (10N), before incubation at 120 °C for 24 h or until complete sample hydrolyzation. Cell-associated and soluble collagen contents were assessed using the Chondrex Hydroxyproline Assay kit (Chondrex, Redmond, WA, USA) according to the manufacturer’s protocol. In brief, 10 µL of sample, standard or blank control solution was added in duplicate to a 96-well clear-bottomed absorbance plate. Next, 100 µL of 1× chloramine-T solution was added to the wells and incubated at room temperature (RT) for 20 min. After incubation, 100 µL 1× DMAB solution was added to the wells and incubated at 60 °C for 30 min, with mild agitation at 5 min intervals. The plate O.D. values were read at 540 nm and sample values were compared to the values of the standard curve. The total collagen content was determined using the following equation:Collagen level (µg/mL) = Hydroxyproline level (µg/mL) × (100/13.5)"}, "[6]": {"test_system": "α-SMA in NIH/3T3 dermal fibroblasts", "test": "Immunocytochemistry α-SMA stress fibers", "format": "cell-based, mouse", "settings": "48 h, TGF-β1 10 ng/mL, AF38Pep 10 µg/mL", "procedure": "Cells were grown to 40% confluence in 8-well glass chamber slides (Nunc, Thermo Fisher Scientific), prior to growth arrest and treatment. Cells were washed with PBS before fixation in 4% paraformaldehyde for 10 min at room temperature. Next, cells were permeabilized with 0.1% (v/v) Triton X-100 in PBS for 10 min at room temperature. For visualization of ECM, cells were fixed with 100% ice-cold methanol for 8 min at −20 °C. Slides were washed with PBS and blocked with 1% goat serum (TBD Science, Tianjin, China) for 30 min before washing with 0.1% (w/v) BSA in PBS. Subsequently, slides were incubated with monoclonal mouse anti-α-SMA antibody (Sigma-Aldrich, 1:50) diluted in 0.1% BSA-PBS, overnight at 4 °C. After further wash steps, slides were incubated with goat anti-mouse IgG CF-488 secondary antibody (Abcam, 1:1000) in 0.1% BSA-PBS for 1 h at room temperature and under darkness. For F-actin visualization, after fixation and permeabilization; cells were incubated with phalloidin conjugated to FITC (Sigma-Aldrich) in 0.1% BSA-PBS, overnight at 4 °C. Cells were then mounted in DAPI Fluoromount-G (Thermo Fisher Scientific) and imaged using a Zeiss Axio Imager Z1 UV fluorescence microscope (Zeiss, Jena, Germany) and a Leica TCS SP5 laser scanning confocal microscope (Leica Biosystems, Baden-Württemberg, Germany)."}}, "note": "Bridges are numbered along the chain shown (N, C = ends). Where no end group is shown, it is not given here.", "data": [{"sequence": "VMPYISTTPAKPCTSENCGNSWYGGFKSKNENKIYFIN (disulfide 13-18 (inferred)) [AF38Pep]", "values": [{"measurement": "LTBP1 mRNA expression", "setting": "[1]", "value": "attenuated"}, {"measurement": "attenuation of TGF-β1-induced α-SMA mRNA", "setting": "[2]; NIH/3T3, 48 h, all concentrations tested (log10 dilution range)", "value": "significantly attenuated gene induction at 48 h in all concentrations tested"}, {"measurement": "attenuation of TGF-β1-induced α-SMA mRNA", "setting": "[2]; NIH/3T3, 72 h, 10 µg/mL", "value": "only AF38Pep treatment at a concentration of 10 µg/mL was sufficient to significantly attenuate the α-SMA mRNA upregulation"}, {"measurement": "attenuation of TGF-β1-induced α-SMA mRNA", "setting": "[2]; NIH/3T3, 72 h, 0.1–1 µg/mL", "value": "not able to effectively inhibit the differentiation response over the 72 h duration of treatment"}, {"measurement": "collagen type III mRNA expression", "setting": "[3]; 72 h, TGF-β1 + AF38Pep", "value": "all inhibited"}, {"measurement": "collagen type III mRNA expression", "setting": "[3]; by 48 h, vs TGF-β1-only", "value": "significant attenuation"}, {"measurement": "VCAM1 total protein", "setting": "[4]", "value": "remained unaffected"}, {"measurement": "total collagen synthesis relative to TGF-β1 only", "setting": "[5]", "value": "approximately 60%"}, {"measurement": "α-SMA protein expression (stress fibers)", "setting": "[6]", "value": "inhibited"}]}]}
